Assay results: US7906549B2, “Aminocarboxylic acid derivative and medicinal use thereof” (Ono Pharmaceutical Co., Ltd., priority 2004, dated 2011)
Structures can show the parent of a compound that is named as a salt.

What was measured:
Human EDG-1 = biological target: T1, Human EDG-1 (Homo sapiens, UniProt P21453); experiment: Agonistic activity against EDG by monitoring changes in intracellular calcium ion [Ca^2+]i concentration; type: cell-based; conditions: Human EDG-1 overexpressing CHO cells; read-out: EC50 (increase in intracellular calcium ion concentration)
T1 construct: expressed in transfected cells; host or cells: CHO cells
T1 sequence (P21453 whole entry): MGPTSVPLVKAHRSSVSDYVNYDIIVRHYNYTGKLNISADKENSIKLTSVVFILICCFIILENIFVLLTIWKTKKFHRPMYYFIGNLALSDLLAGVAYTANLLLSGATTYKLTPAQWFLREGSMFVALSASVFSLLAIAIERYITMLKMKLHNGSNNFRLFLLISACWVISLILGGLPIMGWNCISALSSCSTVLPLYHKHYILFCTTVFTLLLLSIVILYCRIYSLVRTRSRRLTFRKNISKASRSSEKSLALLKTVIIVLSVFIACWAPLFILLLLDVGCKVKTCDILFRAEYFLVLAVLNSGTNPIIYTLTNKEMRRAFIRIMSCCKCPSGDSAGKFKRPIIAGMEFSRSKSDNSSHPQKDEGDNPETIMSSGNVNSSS
Protocol: Human EDG-1, EDG-3, EDG-5, or EDG-8 gene overexpressing CHO cells were cultured in Ham's F12 medium (manufactured by GibcoBRL) containing 10% FBS (fetal bovine serum), penicillin/streptomycin, and blasticidin (5 μg/ml). The cultured cells were incubated in a 5 μM Fura2-AM solution (Ham's F12 medium containing 10% of FBS, 20 mM HEPES buffer (pH7.4), and 2.5 mM probenecid) at 37° C. for 60 minutes. After washing once with Hanks solution containing 20 mM HEPES buffer (pH7.4) and 2.5 mM probenecid, the plate was soaked in the same solution. Then, the plate was set on a fluorescent drug screening system (FDSS 6000; Hamamatsu Photonics K. K.) and the intracellular calcium ion concentration was measured without stimulation for 30 seconds. A test compound (final concentration: 1 nM to 10 μM, dimethylsulfoxide (DMSO) solution) was added and S1P (final concentration: 100 nM) was added 5 minutes thereafter. Then, the increase in the intracellular calcium ion concentration was measured before and after the addition of S1P at intervals of 3 seconds (excitation wavelength: 340 nm and 380 nm, fluorescence wavelength: 500 nm).
The agonistic activity of the compound against each EDG was determined by using the peak value due to S1P-stimulation in a well containing DMSO as a substitute for the evaluated compound as a control value (A), comparing the value […] the addition of the evaluated compound with the increased value (B) in the fluorescent ratio after the addition, and calculating the increase ratio (%) in the intracellular calcium ion [Ca^2+]i concentration as: increase ratio (%)=(B/A)×100. Increase ratios of the compound at individual concentrations were determined and the EC50 value was calculated.

lymphocyte in blood = experiment: Counting the number of lymphocyte in blood after oral administration; type: in vivo, male BALB/c mice or male Sprague-Dawley rats; conditions: Mus musculus, 24 hours after the administration, read-out: ED50 (dose required for lowering the blood cell count to 50%)
Protocol: Test compounds were orally administered to male BALB/c mice or male Sprague-Dawley rats (Charles River Laboratories, Japan, Inc., 6-week-old at the time of use). 4 to 72 hours after the administration, the blood was collected from the aorta abdominalis under ether anesthesia. The number of the total leucocyte count, the lymphocyte count, the neutrophil count, the erythrocyte count, the platelet count in blood and the hematocrit value were measured with a multipurpose automatic blood cell counter (SF-3000, manufactured by Sysmex Corporation). Evaluation was made by setting the average blood cell count in a vehicle-administered group (vehicle group) as 100% and calculating the percentage of vehicle from the average blood cell count of each test compound-administered group.

[1] = system: experimental allergic encephalomyelitis; experiment: Experimental allergic encephalomyelitis (EAE) model, Case 1: administration from the day of sensitization; type: in vivo, Female LEW/CrlCrlj rats; conditions: from the day of sensitization to Day 19
Protocol: (§1) Killed Mycobacterium tuberculosis (M. tuberculosis H37 Ra, Difco, Cat No. 231141) was suspended in distilled water for injection to dissolve MBP (Myelin basic protein, SIGMA, Cat No. M-2295) (Killed Mycobacteriumtuberculosis: 1000 μg/mL, MBP: 60 μg/mL). This solution was mixed with an equivalent amount of FCA (Freund Complete Adjuvant, CHEMICON, Cat No. AR001) to thereby prepare an emulsion. Female LEW/CrlCrlj rats (Charles River Laboratories, Japan, Inc., 6-week-old at the time of purchase, 7-week-old at the time of sensitization) were antigen-sensitized by a single subcutaneous injection (0.1 mL/rat) of the emulsion in the right foot pad under slight ether anesthesia, thereby inducing the symptoms of experimental allergic encephalomyelitis. The day of sensitization was defined as Day 0.
The EAE symptoms of the rats were observed every day from Day 8 to Day 20, and were evaluated based on the following criteria: Tail relaxation: 1 point, Incomplete paralysis of hind legs: 1 point, Complete paralysis of hind legs: another 1 point, and Incontinentia: 1 point. The maximum score was 4 points. Death was 5 points.
Using a 0.5% MC solution (0.5 w/v % Methyl Cellulose 400cP Solution, Wako Pure Chemical Industries, Ltd., Cat No. 133-14255) as a vehicle, the test compound was forcibly administered orally in an amount of 5 mL/kg once a day from […] the day of sensitization to Day 19. To a control group, the same amount of 0.5% MC solution was forcibly administered orally once a day for the same period. The body weight was measured every day from Day 0 and the dose was determined based on the body weight of each day.

[2] = system: experimental allergic encephalomyelitis; experiment: Experimental allergic encephalomyelitis (EAE) model, Case 2: administration from immediately before development of symptoms; type: in vivo, Female LEW/CrlCrlj rats; conditions: oral dose of 0.3 mg/kg once a day, from Day 9 to Day 19
Protocol: as §1, with “Mycobacterium tuberculosis:” for “Mycobacteriumtuberculosis:”, “The day of sensitization was defined as Day 0.” left out
The EAE symptoms of the rats were observed every day from Day 7 to Day 20, and evaluated based on the following criteria: Tail relaxation: 1 point, Incomplete paralysis of hind legs: 1 point, Complete paralysis of hind legs: another 1 point, and Incontinentia: 1 point. […]
Using 0.5% MC solution (0.5 w/v % Methyl Cellulose 400cP Solution, Wako Pure Chemical Industries, Ltd., Cat No. 133-14255) as a vehicle, the test compound was forcibly administered orally in an amount of 5 mL/kg once a day from Day 9 […] sensitization to Day 19. […] The body weight was measured every day from Day 9 and the dose was determined based on the body weight of each day.

heart rate = experiment: Evaluation of cardiotoxicity (bradycardia); type: in vivo; conditions: rabbits, intravenously administered, dose of 0.01 mg/kg
Excerpt: A catheter was inserted into the jugular vein and carotid artery (or the femoral vein and femoral artery) of mammals (e.g., SD rat and a rabbit). The tip of the arterial cannula was connected to a pressure transducer (DX-100, manufactured by NIHON KOHDEN CORP.), thereby measuring blood pressure through a strain pressure amplifier (AP-641G, manufactured by NIHON KOHDEN CORP.) and measuring heart rate through an instantaneous heart rate measuring unit (AT-601G, manufactured by NIHON KOHDEN CORP.), respectively. Alternatively, heart rate was measured with an electrocardiogram. Under anesthesia or under awareness after arousal was induced, the test compound was administered intravenously or administered orally. Then, changes in blood pressure and heart rate were measured.

[3] = oral dose of 0.3 mg/kg once a day

| SMILES | EC50 (Human EDG-1) [nM] | melting point [°C] | further results |
| --- | --- | --- | --- |
| O=C(O)CCN1CC=C(c2ccc(OCCCc3ccc(Cl)cc3)cc2)CC1 [Example 29-1, 3-[4-{4-[3-(4-chlorophenyl)propoxy]phenyl}-3,6-dihydropyridin-1(2H)-yl]propanoic acid trifluoroacetate] | 133 |  |  |
| CC(C)Cc1ccc(-c2nc(-c3ccc4c(c3)CCN(CCC(=O)O)C4)no2)cc1 [Example 13-4, 3-[6-[5-(4-isobutylphenyl)-1,2,4-oxadiazol-3-yl]-3,4-dihydro-2(1H)-isoquinolinyl]propanoic acid trifluoroacetate] | 41 |  |  |
| CCCc1ccc(COc2ccc3c(c2)CCC(CN2CC(C(=O)O)C2)=C3Cl)c(OC)c1 [Example 37-6, 1-({1-chloro-6-[(2-methoxy-4-propylbenzyl)oxy]-3,4-dihydro-2-naphthalenyl}methyl)-3-azetidinecarboxylic acid] | 0.7 |  |  |
| CC1=C(CN2CC(C(=O)O)C2)CCc2cc(OCCCc3ccc(Cl)cc3)ccc21 [Example 7-1, 1-({6-[3-(4-chlorophenyl)propoxy]-1-methyl-3,4-dihydro-2-naphthalenyl}methyl)-3-azetidinecarboxylic acid] |  | 165.4 to 166.9 |  |
| CC1=C(CN2CC(C(=O)O)C2)CCc2cc(OC[C@@H](C)Cc3ccc(F)cc3)ccc21 [Example 7-4, 1-[(6-{[(2S)-3-(4-fluorophenyl)-2-methylpropyl]oxy}-1-methyl-3,4-dihydro-2-naphthalenyl)methyl]-3-azetidinecarboxylic acid] |  | 142.5 to 143.6 |  |
| CC1=C(CN2CC(C(=O)O)C2)CCc2cc(OC[C@@H](C)Cc3ccc(Cl)cc3)ccc21 [Example 7-10, 1-[(6-{[(2S)-3-(4-chlorophenyl)-2-methylpropyl]oxy}-1-methyl-3,4-dihydro-2-naphthalenyl)methyl]-3-azetidinecarboxylic acid] |  | 148.6 to 148.9 |  |
| O=C(O)C1CN(CC2=C(Cl)c3ccc(OCCCC4CCCCC4)cc3CC2)C1 [Example 27-7, 1-{[1-chloro-6-(3-cyclohexylpropoxy)-3,4-dihydronaphthalen-2-yl]methyl}azetidine-3-carboxylic acid] | 0.7 |  | ED50 (lymphocyte in blood): 1.6 mg/kg |
| O=C(O)CCN1CCc2c([nH]c3cc(OCCCc4ccccc4)ccc23)C1 [Example 18, 3-[7-(3-phenylpropoxy)-1,3,4,9-tetrahydro-2H-β-carbolin-2-yl]propanoic acid trifluoroacetate] | 662 |  |  |
| CC1=C(CN2CC(C(=O)O)C2)CCc2cc(OCc3ccc(C(F)(F)F)cc3C(F)(F)F)ccc21 [Example 37-5, 1-[(6-{[2,4-bis(trifluoromethyl)benzyl]oxy}-1-methyl-3,4-dihydro-2-naphthalenyl)methyl]-3-azetidinecarboxylic acid] |  |  | inhibition of the development of EAE symptoms [1, 3]: almost completely inhibited; inhibition of the development of EAE symptoms [2]: had the effect of inhibiting the development of symptoms |
| CCCc1ccc(COc2ccc3c(c2)CCC(CN2CC(C(=O)O)C2)=C3C)c(OC)c1 [Example 37, 1-({6-[(2-methoxy-4-propylbenzyl)oxy]-1-methyl-3,4-dihydro-2-naphthalenyl}methyl)-3-azetidinecarboxylic acid] | 1 |  | decrease of heart rate (heart rate): ≤ 20%; inhibition of the development of EAE symptoms ([1]; oral dose of 0.1 mg/kg once a day): almost completely inhibited; inhibition of the development of EAE symptoms [1, 3]: completely inhibited; ED50 (lymphocyte in blood): 0.029 mg/kg; inhibition of the development of EAE symptoms [2]: almost completely inhibited |
